Here are results for two compounds from patent publication US8063212B2, “Imidazolidinonyl aminopyrimidine compounds for the treatment of cancer” (Eli Lilly and Company, priority 2006, dated 2011).

Structures are written as SMILES. Like-named read-outs stand apart in the source and are kept apart here. Where only a bound is given, the exact number is not on record here.

For series [1] the following is noted: in man; cited from earlier work.
Another series concerns HCT116 murine xenografts. Particulars: HCT116 murine xenograft; cited from earlier work.
The subject of a further series is A549 murine xenografts. Particulars: A549 murine xenograft; cited from earlier work.
In series [2] the test system is NClH460 murine xenografts. Conditions: NClH460 murine xenograft; cited from earlier work.
Another series concerns the target T1, Plk1 (Homo sapiens, UniProt P53350).
T1 construct: made in house; host or cells: baculovirus-infected Sf9 cells, treated with okadaic acid before harvest; the substrate was made in E. coli BL21
As to the kind of experiment: Plk1 Inhibition Assay. Format: biochemical. Conditions: Absolute IC50, 5.0 μM ATP, GST-Cdc25c (1-206) substrate, 60 min; MSR 3.6. The source says: Human Plk1 cDNA, which may be obtained from a number of sources, such as Incyte (accession number: NM_005030), may be directly linked at one of its termini with a polynucleotide sequence expressing a His6 tag, such as the C-terminal FLAG-His6 tag, and inserted into an appropriate expression vector, such as a pFastBac™ vector (Invitrogen) and transfected into an appropriate system, such as baculovirus similar to what has been reported by Yue-Wei Qian, et al., Science, 282, 1701 (1998) for xPlkk1. If a viral expression system is used, then the virus (e.g., baculovirus bearing a Plk1-Flag-His6 tag polynucleotide construct) is infected into a culture of a suitable host cell, such as Sf9 cells. […]
Plk1 kinase reactions contain Plk1-Flag-His6 tag fusion enzyme (0.2 ng/μL) in a buffer containing 50 mM HEPES, pH 7.3, 1.0 mM dithiothreitol, 5.0 μM ATP, 10 mM MgCl2, 0.01% TRITON® X-100, 0.4 μCi ^33P-ATP, and 0.06 μg/μL GST-Cdc25c (1-206) peptide. […] Wells are dried before addition of 40 μL of MicroScint™ 20 (Packard) and then counted on a Wallac MICROBETA® Jet. The percentage inhibition values from the 10-point concentration response data are subsequently analyzed, for example, using ACTIVITY BASE™ software (IDBS), using a 4-parameter logistic equation. Absolute IC50 values are calculated from the resulting curve fit.

In another series the test system is HeLa Cells. Briefly: pHH3(S10), Mitotic Cells, and DNA Content Assays. In kind it is cell-based. Particulars: Homo sapiens, 23 hours exposure. On the procedure: HeLa Cells from the American Type Culture Collection (ATCC) are plated at 200 cells/well in 96 well […] BIOCOAT™ plates, and are incubated in MEM (Minimum Essential Medium, e.g., GIBCO, catalog #11095) with 10% FBS (Fetal Bovine Serum) in 37° C., 5% CO2 for 24 hours. Cells are treated by adding compound (in 0.25% DMSO) to the medium, dosing at 10 points across the range […] to 0.0098 μM. After 23 hours exposure to the compounds, cells are fixed, for example with the PREFER™ fixative [Anatech LTD., Catalog #414] for 30 min then are permeablized with 0.1% TRITON® X100 in phosphate buffered saline (PBS) solution for 15 min. Cells are washed 3 times with PBS then digested with 50 μg/mL RNAse. Primary antibody, phosphohistone H3 (Upstate Cat#06-570), is added at 1:500 in PBS with 1% bovine serum albumin (BSA) to the cells over night at 4° C. After 3 PBS washes, cells are incubated with Alexa488 labeled secondary antibody (Invitrogen cat #A11008) for 1 hour at room temperature. Again they are washed 3 times with PBS, and then 15 μM propidium iodide (Molecular Probes cat #P3566) is added for 30 min to stain nuclei. Fluorescence Plates are scanned with ACUMEN EXPLORER™ [Laser-scanning fluorescence microplate cytometer (comprising of 488 nm argon ion laser excitation and multiple photomultiplier tube detection), manufactured by TTP LABTECH LTD] to measure phosphohistone H3, DNA content and mitotic cells as measured by DNA condensation. Image analysis are based on cellular fluorescent signals for identifying cells in different subpopulations. pHH3(S10) positive cells are identified by mean intensity at 500-530 nm above the threshold. Total intensity at 655-705 nm from propidium iodide/DNA is used to identify individual cells (cells with DNA content from 2N to 4N) and subpopulations in cell cycle (2N cells, 4N cells). Peak intensity at 575-640 nm is used to identify DNA condensation that is used as the marker to identify mitotic cells among 4N cells. […] The ECso is determined by curve fitting to a four parameter logistic for each output using ACTIVITY BASE™.

A further series has as its system HCT116 cells. As to the kind of experiment: Antiproliferative Assay. Conditions: Homo sapiens, HCT-116, 72 hours, Alamar Blue, n=3, MSR 3.1. In kind it is cell-based. On the procedure:
The effects of compounds on cell proliferation can be determined using cells and cell proliferation methods well-known in the art (Robert C. Squatrito et al., Gynecological Oncology, 58, 101-105, (1995)). For example, HCT116 cells, which may be obtained from the American Type Culture Collection, may be seeded at ˜2000 cells/well in 96-well plates and allowed to attach overnight in a humidified CO2 incubator at 37° C. Following the 20-24 hour incubation, half-log serially diluted compounds are added and the plates are returned to the incubator. After an appropriate length of exposure (e.g., 72 hours), cell proliferation is estimated using well-known methods. In one method, 10 μL of a tetrazolium salt, such as Alamar Blue™ is added to the cell plates. After an appropriate exposure to the dye, fluorescence (530 nm excitation, 580 nm emission) is determined. The resulting IC50 has an MSR of 3.1.

T1 sequence (P53350 whole entry): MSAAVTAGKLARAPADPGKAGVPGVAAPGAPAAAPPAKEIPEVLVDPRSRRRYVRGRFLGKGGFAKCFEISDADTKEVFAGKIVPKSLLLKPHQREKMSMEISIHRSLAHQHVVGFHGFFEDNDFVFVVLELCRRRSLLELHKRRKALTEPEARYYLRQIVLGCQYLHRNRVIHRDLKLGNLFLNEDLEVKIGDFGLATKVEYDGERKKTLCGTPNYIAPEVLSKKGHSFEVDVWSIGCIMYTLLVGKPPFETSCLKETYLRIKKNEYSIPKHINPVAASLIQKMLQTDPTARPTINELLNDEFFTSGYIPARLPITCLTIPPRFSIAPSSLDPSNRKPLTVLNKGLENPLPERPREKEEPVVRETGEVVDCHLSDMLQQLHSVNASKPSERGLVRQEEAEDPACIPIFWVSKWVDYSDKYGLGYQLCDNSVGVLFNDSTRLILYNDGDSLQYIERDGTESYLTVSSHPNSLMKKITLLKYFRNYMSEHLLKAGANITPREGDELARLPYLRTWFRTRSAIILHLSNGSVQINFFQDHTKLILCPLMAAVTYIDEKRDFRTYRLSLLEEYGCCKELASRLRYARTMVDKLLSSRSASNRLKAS

As to `CC[C@@H]1C(=O)N(C)c2cnc(Nc3ccc(C(=O)NC4CCN(C)CC4)cc3OC)nc2N1C1CCCC1` [BI-2536], the “clearance (CL)” value in series [1] was over 1000 mL/min. Moreover, the dose limiting toxicity entry in series [1] was “dose limited by myelosupression”. Besides, the “activity in preclinical model” value (with HCT116 murine xenografts; with A549 murine xenografts; in series [2]) was “demonstrated activity” in each case.
As for `CN(C)Cc1cnc(F)cc1-c1cccc2cc(-c3ccnc(NCCN4CCNC4=O)n3)sc12` [Example 4, 1-(2-{4-[7-(5-((Dimethylamino)methyl)-2-fluoropyridin-4-yl)benzo[b]thiophen-2-yl]pyrimidin-2-ylamino}ethyl)imidazolidin-2-one], the half-inhibitory concentration (IC50) on Plk1 is about 25 nM; in the series with HCT116 cells, 44 nM. Further, the EC50 in the series on HeLa Cells (n=1, MSR 2.5, read-out: mitotic EC50) turned out to be 22 nM; with HeLa Cells (n=1, MSR 2.6, read-out: pHH3(s10) EC50) it was 24 nM; in the series with HeLa Cells (n=2, MSR 2.4, read-out: DNA content EC50), 35 nM.
